According to patent US4087520A, “Lowering blood pressure with new L-3-(3,4-dihydroxyphenyl)-2-methyl-alanine peptides” (Boehringer Mannheim GmbH, priority 1975, dated 1978):

Tested on: blood pressure of rats with arterial high pressure
Assay: Blood pressure depression in awake hypertensive rats (11-deoxycorticosteroneacetate plus common salt), direct arterial catheter measurement
Assay type: in vivo
Conditions: hypertensive rats (10% sodium chloride in feed + 11-deoxycorticosteroneacetate), 0.6 millimole/kg perorally in 1% methyl cellulose, 4 hours after oral application, median of at least 6 measurements
Description: The test animals were rats into which arterial catheters had been implanted in a sterile operation via the arteria femoralis into the aorta. It was possible to measure the animals' blood pressure in the awake state directly in the blood with a transducer (Statham Transducer Type TP 23 D 6) via a carrier frequency measuring bridge. The animals were treated by administration of 10% common salt (sodium chloride) in their feed and, starting on the sixth week of their life, two injections per week of 5 mg at a time of 11-deoxycorticosteroneacetate per animal and thus developed an arterial high pressure in the median with values of […]. The test compounds were administered to the animals as follows: After the blood pressure control values had been determined, the animals received the test compound perorally suspended in 10 ml of 1% methyl cellusose solution in a dosage of 0.6 millimole/kg and measurements were taken 4 hours after oral application of the substance.
The values set forth in the Table represent in each case the median of at least 6 individual measurements of blood pressure depression (in mm Hg) per applied substance.

`C[C@@](Cc1ccc(O)c(O)c1)(NC(=O)CN)C(=O)O` [Glycyl-L-3-(3,4-dihydroxyphenyl)-2-methyl-alanine] and `C[C@H](N)C(=O)N[C@@](C)(Cc1ccc(O)c(O)c1)C(=O)O` [L-Alanyl-L-3-(3,4-dihydroxyphenyl)-2-methyl-alanine] are within error of each other in “Blood Pressure Reduction” value: 37 ± 9.1 mm Hg for the first, 51 ± 6.0 mm Hg for the second.

`C[C@H](N)C(=O)N[C@@H](C)C(=O)N[C@@](C)(Cc1ccc(O)c(O)c1)C(=O)O` [L-Alanyl-L-alanyl-L-3-(3,4-dihydroxyphenyl)-2-methylalanine] and `C[C@@](Cc1ccc(O)c(O)c1)(NC(=O)[C@@H](N)CO)C(=O)O` [L-Seryl-L-3-(3,4-dihydroxyphenyl)-2-methyl-alanine] are within error of each other in “Blood Pressure Reduction” value: 58 ± 5.8 mm Hg for the first, 52 ± 7.5 mm Hg for the second.

With `C[C@](N)(Cc1ccc(O)c(O)c1)C(=O)O` [α-Methyl-Dopa, L-3-(3,4-dihydroxyphenyl)-2-methyl-alanine] the “Blood Pressure Reduction” value was 33 ± 4.9 mm Hg.
